These results are taken from article PMC9699089 (Pathogens, 2022).

In general, IC50 refers to the concentration that inhibits the measured activity by half. Usually Kd stands for the concentration at which binding is half-saturated.

Like-named read-outs stand apart in the source and are kept apart here.

For experiment [1], the system named is Plasmodium telomeric sequence FPf1T G-quadruplex. Briefly: FRET melting assay, FPf1T. Format: binding, Plasmodium falciparum. The conditions noted are these: compound 2 μM, oligonucleotide 0.2 μM, K+ conditions.
Experiment [2] deals with G4-forming oligonucleotide Pf1 (d[(G3T3A)3G3]). The experiment in a line: Native electrospray mass spectrometry, Pf1. The class given is binding, Plasmodium. Further details: key to Kd Pf1, stoichiometry 1 (Kd1) / Kd Pf1, stoichiometry 2 (Kd2): n.b.: no binding detected; <LOQ: binding detected but below limit of quantitation. The conditions noted are these: 100 mM TMAA, 1 mM KCl. On the procedure: Oligonucleotides were purchased in the lyophilized form from Eurogentec (RP-cartridge purification), and dissolved at 1 mM in pure water. TMAA (1 M) was purchased from Santa Cruz Biotechnology and potassium chloride (purity > 99.99%) from Sigma Aldrich (Sigma Aldrich, Saint-Quentin-Fallavier, France). The sample solutions contained 10 µM oligonucleotide and 10 (for CD only) or 20 µM ligand, in a 100 mM TMAA, 1mM KCl buffer. The solutions were incubated overnight at 4 °C before analysis.
The sample solutions were injected at a 10 µM strand concentration on an Agilent 6560 DTIMS-Q-TOF instrument (Agilent Technologies, Santa Clara, CA, USA), equipped with a dual-ESI source operated in the negative ion mode in soft conditions. The following parameters were used: fragmentor 320 V, trap fill time 1000 µs, trap release time 200 µs, trap entrance grid delta 2 V. The drift tube was filled with helium and the pressure was fixed at 3.89 ± 0.01 Torr (measured by a capacitance diaphragm gauge CDG-500, Agilent Technologies).
The MS data were extracted using the IM-MS Browser (v. B.08.00; Agilent Technologies). The peak area intensity of each species at the 5- charge state was extracted from their corresponding m/z range (encompassing potassium adducts), and baseline subtracted. The concentrations of all species (free DNA, free ligands, and complexes) and corresponding dissociation constants were determined as previously described.

For experiment [3], the system named is human duplex sequence FdxT. Briefly: FRET melting assay, duplex control FdxT. The following applies: compound 2 μM, oligonucleotide 0.2 μM, K+ conditions. The class given is binding.
Experiment [4] has as its system L. donovani (MHOM/IN/00/DEVI) promastigotes. Briefly: In vitro antileishmanial activity on promastigotes, MTT assay. The conditions noted are these: Leishmania donovani, 72 h incubation, mean +/- SD of three independent experiments. The class given is cell-based. The procedure, abridged: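 Log-phase L. donovani MHOM/IN/00/DEVI promastigotes at 10^6 parasites/mL in Schneider's medium with 20% FCS were exposed to compounds for 72 h at 27 °C, final DMSO under 0.5%. Viability was read by MTT reduction over 4 h, absorbance 570 nm (630 nm reference). IC50 came from regression, three independent experiments.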
On the technique in general: Tetrazolium assays rely on reduction of a dye to a coloured formazan, in cell work by metabolically active cells.

The subject of experiment [5] is T. brucei brucei AnTat 1.9. The experiment in a line: In vitro antitrypanosomal activity, Alamar Blue assay. The class given is cell-based, Trypanosoma brucei brucei. The conditions noted are these: Trypanosoma brucei, slender bloodstream trypomastigotes, AnTat 1.9 strain; mean +/- SD of three independent experiments; read-out: Trypanosoma brucei brucei IC50 Values Trypanos Antat 1.9. The procedure, abridged: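 Bloodstream T. brucei brucei AnTat 1.9 cultured in supplemented MEM with Earle's salts and exposed to compounds in duplicate for 69 h at 37 °C. Alamar Blue then added for 5 h, with fluorescence read at ex 530/em 590 nm.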
For orientation: Resazurin is reduced to fluorescent resorufin, in cell work by metabolically active cells.

The mark [6] stands for this setting: 1:1 ligand:DNA complex, read-out: Kd Pf1, stoichiometry 1 (Kd1).
[7] abbreviates: 2:1 ligand:DNA complex, read-out: Kd Pf1, stoichiometry 2 (Kd2).

In the case of `c1ccc(-c2cc(CNCCc3ccccn3)nc3c2ccc2c(-c4ccccc4)cc(CNCCc4ccccn4)nc23)cc1` [Compound 1m], in experiment [1], the “ΔTm FPf1T” value was determined as 1.3 °C. In addition, the “Kd Pf1, stoichiometry 1 (Kd1)” value in experiment [2] (1:1 ligand:DNA complex) is reported as “n.b”. Moreover, in experiment [3], the “ΔTm FdxT” value was −0.2 °C. Moreover, in experiment [4], the IC50 is above 12.5 µM.

`CN(C)CCCCCNCc1cc(-c2ccccc2)c2ccc3c(-c4ccccc4)cc(CNCCCCCN(C)C)nc3c2n1` [Compound 1d, 2,9-Bis[(5-dimethylaminopentyl)aminomethyl]-4,7-diphenyl-1,10-phenanthroline]: the “ΔTm FPf1T” value in experiment [1] was found to be 18.8 °C. Also, the Kd came to 8 µM in experiment [2] (setting [6]) and 24 µM in experiment [2] (setting [7]). Besides, the “ΔTm FdxT” value in experiment [3] amounted to 1.8 °C. Also, the IC50 in experiment [5] was 1.42 ± 0.1 µM; in experiment [4], above 12.5 µM.

Turning to `c1ccc(-c2cc(CNCCCN3CCCC3)nc3c2ccc2c(-c4ccccc4)cc(CNCCCN4CCCC4)nc23)cc1` [Compound 1l], the “ΔTm FPf1T” value in experiment [1] was 15.4 °C. For the same compound, the Kd was 10 µM in experiment [2] (setting [6]) and 37 µM in experiment [2] (setting [7]). Besides, the “ΔTm FdxT” value in experiment [3] was 0.7 °C. Further, the IC50 in experiment [5] is 1.13 ± 0.06 µM; in experiment [4], above 12.5 µM.

In the case of `CN(C)CCCCNCc1cc(-c2ccccc2)c2ccc3c(-c4ccccc4)cc(CNCCCCN(C)C)nc3c2n1` [Compound 1c, 2,9-Bis[(4-dimethylaminobutyl)aminomethyl]-4,7-diphenyl-1,10-phenanthroline], the “ΔTm FPf1T” value in experiment [1] is 8.9 °C. Further, in experiment [2] (setting [6]), the Kd is 23 µM. Further, the “Kd Pf1, stoichiometry 2 (Kd2)” value in experiment [2] (2:1 ligand:DNA complex) is “n.b”. Besides, the “ΔTm FdxT” value in experiment [3] is −0.5 °C. In addition, the IC50 is 0.86 ± 0.16 µM in experiment [5] and above 12.5 µM in experiment [4].
